The target in series [1] is T1, CYP19A (aromatase) (Homo sapiens, UniProt P11511).
T1 sequence (P11511 whole entry): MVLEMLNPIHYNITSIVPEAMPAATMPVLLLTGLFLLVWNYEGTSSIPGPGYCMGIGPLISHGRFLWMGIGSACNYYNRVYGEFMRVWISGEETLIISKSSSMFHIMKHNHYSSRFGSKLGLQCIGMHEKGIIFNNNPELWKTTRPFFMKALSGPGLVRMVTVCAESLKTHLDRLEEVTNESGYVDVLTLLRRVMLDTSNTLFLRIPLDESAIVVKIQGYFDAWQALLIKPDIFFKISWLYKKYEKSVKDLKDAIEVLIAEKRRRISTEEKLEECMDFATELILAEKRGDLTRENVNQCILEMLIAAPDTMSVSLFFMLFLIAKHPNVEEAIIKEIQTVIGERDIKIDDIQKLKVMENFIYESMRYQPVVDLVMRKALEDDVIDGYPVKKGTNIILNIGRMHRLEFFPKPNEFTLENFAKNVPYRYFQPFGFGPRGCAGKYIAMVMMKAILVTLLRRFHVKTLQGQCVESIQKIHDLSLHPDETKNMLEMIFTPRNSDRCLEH
Nature of the series: Inhibition of human CYP19A at 1 uM measured every 1 min for 60 mins by flourimetric assay.

The subject of series [2] is MCF7. Kind of series: Induction of cell cycle arrest in human MCF7 cells assessed as accumulation of cells in G2/M phase at 100 to 250 uM measured after 24 hrs by PI staining based flow cytometry method. It counts as functional. As to conditions: dose 100-250 µM. (In general: A flow cytometer gives signals particle by particle.)
Series [3] deals with MCF7. Nature of the series: Induction of cell cycle arrest in human MCF7 cells assessed as decrease in accumulation of cells in G1 phase at 100 to 250 uM measured after 24 hrs by PI staining based flow cytometry method. The class given is functional. As to conditions: dose 100-250 µM.
The subject of series [4] is MCF7. Kind of series: Induction of cell cycle arrest in human MCF7 cells assessed as accumulation of cells in S phase measured after 24 hrs by PI staining based flow cytometry method. The class given is functional. As to conditions: dose 10-250 µM.
The test system of series [5] is MCF7. Nature of the series: Cytotoxicity against human MCF7 cells assessed as lactate dehydrogenase activity at 250 uM measured after 24 hrs by microplate reader method relative to control. It counts as functional.
Series [6] concerns MCF7. Nature of the series: Cytotoxicity against human MCF7 cells assessed as lactate dehydrogenase activity measured after 24 hrs by microplate reader method relative to control. It counts as functional.
Series [7] deals with MCF7. Nature of the series: Cytotoxicity against human MCF7 cells assessed as metabolic activity measured after 48 hrs by MTT assay. As to conditions: dose 10-250 µM. The class given is functional, cell-based. Background: Formazan colour is commonly taken as a measure of viable cells.
For series [8], the system named is MCF7. Kind of series: Cytotoxicity against human MCF7 cells assessed as metabolic activity at 10 to 250 uM measured after 24 hrs by MTT assay. The class given is functional. As to conditions: dose 10-250 µM.
Series [9] has as its target T2, Aromatase (Homo sapiens, UniProt P11511).
T2 sequence (P11511 whole entry): T1 sequence (P11511 whole entry)
Nature of the series: Inhibition of human CYP19A measured every 1 min for 60 mins by flourimetric assay.

For series [10], the system named is MCF7. Nature of the series: Cytotoxicity against human MCF7 cells assessed as metabolic activity at 50 uM measured after 72 hrs by MTT assay. It counts as functional.
For series [11], the system named is MCF7. Nature of the series: Cytotoxicity against human MCF7 cells assessed as metabolic activity at 10 uM measured after 24 hrs by MTT assay. The class given is functional.
Series [12] has as its system MCF7. Kind of series: Cytotoxicity against human MCF7 cells assessed as metabolic activity at 10 uM measured after 72 hrs by MTT assay. It counts as functional.
The test system of series [13] is MCF7. Nature of the series: Cytotoxicity against human MCF7 cells assessed as metabolic activity at 25 uM measured after 72 hrs by MTT assay. The class given is functional.
The test system of series [14] is MCF7. Kind of series: Cytotoxicity against human MCF7 cells assessed as metabolic activity at 100 uM measured after 48 hrs by MTT assay. The class given is functional.
In series [15] the test system is MCF7. Nature of the series: Cytotoxicity against human MCF7 cells assessed as metabolic activity at 250 uM measured after 48 hrs by MTT assay. It counts as functional.

The source of these data is ChEMBL document CHEMBL4819014, “Design, synthesis and biological evaluation of imidazole and triazole-based carbamates as novel aromatase inhibitors” (Eur J Med Chem, 2021).

Activity calls are given as the source filed them. The calls are words filed in the database; no cut-off is given here.

In turn, `COc1ccc(NC(=O)OC(COc2ccccc2)Cn2ccnc2)cc1` (stereo not drawn) gave an inhibition at 1 h, 1 µM in [1] of 61%.
For `O=C(Nc1ccc(Cl)cc1)OC(Cn1ccnc1)c1ccccc1` (stereo not drawn), in series [1], the inhibition at 1 h, 1 µM stood at 62%.
Still for that read-out and setting: the same measure for `COc1ccc(OCC(Cn2cncn2)OC(=O)Nc2ccc(Cl)cc2)cc1` (stereo not drawn): 49%.
For the compound `O=C(Nc1ccc(Cl)cc1)OC(COc1ccccc1)Cn1ccnc1` (stereo not drawn), the inhibition at 1 h, 1 µM in series [1] came out at 72%. The outcome in series [2] and in [3] was Active. Further, the Activity result in [4] is “Dose-Dependent Effect”; in [7], “Dose-Dependent Effect”; in series [8] it was 50%; in [10], 25.18%. For the same compound, the “fold change (FC)” value in series [5] was determined as 4.8; in [6] it was 4. This compound also yielded an IC50 in series [9] of 860 nM.
`O=C(Nc1ccccc1)OC(Cn1ccnc1)c1ccccc1` (stereo not drawn): the inhibition at 1 h, 1 µM in series [1] amounted to 61%.
On the same count and under the same terms, the same measure for `COc1ccc(NC(=O)OC(COc2ccccc2)Cn2ccnc2)c(OC)c1` (stereo not drawn): 25%.
The compound `O=C(NCc1ccccc1)OC(Cn1ccnc1)c1ccccc1` (stereo not drawn) showed an inhibition at 1 h, 1 µM in series [1] of 81%. Also, the Activity was 43.67% in series [11]; 50.16% in series [12]; “Dose-Dependent Effect” in [4]; 55.06% in series [13]; 46.7% in series [10]; 10.39% in [14]. The Activity in series [15] is 30.75%. Besides, the “fold change (FC)” value was 4.8 in series [5] and 4 in [6]. Half-maximal inhibition in series [9] (IC50) required 820 nM.
On to `O=C(Nc1ccccc1)OC(COc1ccc(Cl)cc1)Cn1cncn1` (stereo not drawn), for which the inhibition at 1 h, 1 µM in series [1] amounted to 46%.
The same measure, in the same setting: the same measure for `O=C(Nc1ccccc1)OC(COc1ccccc1)Cn1ccnc1` (stereo not drawn): 27%.

The inhibition is how much of the control response was suppressed. Low values mean little suppression, high ones strong suppression. For orientation: IC50 means the concentration needed to halve the response being measured.
